{"source": "patent US11453674B2", "about": "“Heterocyclic compound, preparation method and use thereof in medicine” (SUZHOU SINOVENT PHARMACEUTICALS CO., LTD., priority 2019, dated 2022)"}
{"biological_target": "T1, OAT3 (Homo sapiens, UniProt Q8TCC7)", "T1 construct": "host or cells: HEK293/OAT3 (hygromycin B selection)", "T1 sequence (Q8TCC7 1-542)": "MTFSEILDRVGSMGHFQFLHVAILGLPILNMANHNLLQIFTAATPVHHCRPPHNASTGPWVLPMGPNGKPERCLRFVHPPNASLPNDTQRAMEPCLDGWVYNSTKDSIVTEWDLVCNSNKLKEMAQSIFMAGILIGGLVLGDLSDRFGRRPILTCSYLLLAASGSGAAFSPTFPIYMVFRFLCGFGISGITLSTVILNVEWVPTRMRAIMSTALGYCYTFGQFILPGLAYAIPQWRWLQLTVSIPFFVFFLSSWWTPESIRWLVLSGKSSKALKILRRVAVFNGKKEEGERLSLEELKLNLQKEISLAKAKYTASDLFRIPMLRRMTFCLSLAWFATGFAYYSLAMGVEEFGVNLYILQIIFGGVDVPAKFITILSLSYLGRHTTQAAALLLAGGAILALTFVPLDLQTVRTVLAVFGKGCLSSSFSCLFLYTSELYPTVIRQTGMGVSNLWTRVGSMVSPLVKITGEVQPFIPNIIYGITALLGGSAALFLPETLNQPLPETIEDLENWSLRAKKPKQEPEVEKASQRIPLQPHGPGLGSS", "test": "Inhibition of 6-carboxyfluorescein uptake in HEK293/OAT3 cells", "assay_type": "cell-based", "conditions": "ratio of OAT3 IC50 to hURAT1 IC50 (selectivity)", "description": "1. Reagents and Consumables\n2. Culture Media and Solutions\nThaw medium: 90% DMEM+10% FBS+1× Pen/Strep, preserved at 4° C. for later use.\nCulture medium: 90% DMEM+10% FBS+1× Pen/Strep+100 μg/mL Hygromycin B, preserved at 4° C. for later use.\n5× Matrigel: 1 vial of Matrigel was thawed overnight at 4° C., then diluted to 500 mL with cold DMEM. The resulting solution was preserved at 4° C. for later use after subpackaging.\nUptake assay buffer: 487.5 mL HBSS buffer was mixed with 12.5 mL 1M HEPES, with the final HEPES concentration being 25 mM. This was prepared right before the experiment.\n30 mM probenecid: 2 mg of the powder was dissolved in 233.62 μL of 100% DMSO. The resulting solution was preserved at −20° C. for later use after subpackaging.\nThe resulting solution was preserved at −20° C. for later use after subpackaging.\nThe resulting solution was preserved away from light at 4° C. for later use after subpackaging.\nEnvision multimode plate reader (with parameters as follows)\nEmission wavelength: 590 nm\n4. Experimental Procedures\nThe cells were quickly taken out from a liquid nitrogen tank and shaken in a water bath at 37° C. until completely thawed. The cell suspension was quickly added to a pre-heated culture medium and centrifuged at 1000 rpm for 5 min. The supernatant was discarded. A fresh pre-heated culture medium was added for resuspension. The cell suspension was transferred into a 100 mm dish and incubated at 37° C. at 5% CO2.\nTypically, the cells were passaged every 2-3 days in a ratio of 1:3 to 1:5.\n5× Matrigel was added to a 384-well cell plate at 5 μL/well for incubation in an incubator at 37° C. for 30 min, followed by digestion.\nCells were collected after digestion, counted, resuspended at 1×10^6 cells/mL using a culture medium, and added to a coated plate at 60 μL/well by using a Multidrop Combi to give a cell density of 6×10^4 cells/well, followed by incubating overnight at 37° C. at 5% CO2.\n3) Preparation of Uptake Assay Buffer\nOn the day of experiment, fresh buffer was prepared as needed.\n4) Preparation of Compounds (Using ECHO)\nWorking solutions of 11 concentrations were prepared for plotting a curve with stock solutions of 3 concentrations using PlateMap. The 3 concentrations were 30 mM, 0.3 mM, 0.003 mM, all formulated in DMSO.\n5) Preparation of a Mixed Solution of 6-Carboxyfluorescein (6 μM) and Compounds\nAccording to amount used, 6-carboxyfluorescein (1 mM) was diluted with uptake assay buffer to give a diluted 6-carboxyfluorescein solution (6 μM). […] The mixture was preserved away from light for later use. The concentration of DMSO was 2% at this time.\nThe cells were incubated overnight before the culture medium was carefully removed. Then 80 μL of uptake assay buffer was added to each well at room temperature for washing the cells 3 times. After washing, 20 μL of uptake assay buffer was added to each well.\nThe mixed solution of 6-CF (6 μM) and compounds, prepared in step 5, was transferred to a cell plate at 20 μL/well with Bravo. The mixed solution was centrifuged at 400 rpm for 1 min, and incubated away from light at room temperature for 10 min. At this time, the concentration of 6-CF became 3 μM, the concentration of the compound became the final concentration, and the concentration of DMSO became 1%.\nThe cells were washed 3 times with pre-cooled uptake assay buffer at 80 μL/well, to remove unbound 6-CF.\nThe plate was read on the Envision. The data were recorded and processed to calculate IC50.\nAccording to the fluorescence signals of HPE and ZPE on each cell plate, the inhibition rate (%) of the compound in each well on the cell plate was calculated.\nThe XLfit software was used to plot the curve for calculating the IC50 values of the compounds. The IC50 value of the positive compound was also one of the criteria for controlling the quality of each experiment."}
{"molecule": "CCc1nc2ncc(Br)cn2c1C(=O)c1cc(Br)c(O)c(Br)c1", "note": "[Example 3, (6-bromo-2-ethylimidazo[1,2-a]pyrimidin-3-yl)(3,5-dibromo-4-hydroxyphenyl)methanone]", "IC50, OAT3/IC50, hURAT1": 8.9}
{"molecule": "CCc1nc2ncc(F)cn2c1C(=O)c1cc(Br)c(O)c(Br)c1", "note": "[Example 4, (3,5-dibromo-4-hydroxyphenyl)(2-ethyl-6-fluoroimidazo[1,2-a]pyrimidin-3-yl)methanone]", "IC50, OAT3/IC50, hURAT1": 36.5}
{"molecule": "CCc1nc2ncc(C(F)(F)F)cn2c1C(=O)c1cc(Br)c(O)c(Br)c1", "note": "[Example 5, (3,5-dibromo-4-hydroxyphenyl)(2-ethyl-6-(trifluoromethyl)imidazo[1,2-a]pyrimidin-3-yl)methanone]", "IC50, OAT3/IC50, hURAT1": 21.1}
{"molecule": "CCc1nc2ncc(Cl)cn2c1C(=O)c1cc(Br)c(O)c(Br)c1", "note": "[Example 6, (6-chloro-2-ethylimidazo[1,2-a]pyrimidin-3-yl)(3,5-dibromo-4-hydroxyphenyl)methanone]", "IC50, OAT3/IC50, hURAT1": 24.8}
{"molecule": "CCc1nc2cc(C(F)(F)F)ncn2c1C(=O)c1cc(Br)c(O)c(Br)c1", "note": "[Example 7, (3,5-dibromo-4-hydroxyphenyl)(2-ethyl-7-(trifluoromethyl)imidazo[1,2-c]pyrimidin-3-yl)methanone]", "IC50, OAT3/IC50, hURAT1": 3.0}
{"molecule": "CCn1nc2ccc(F)cc2c1C(=O)c1cc(Br)c(O)c(Br)c1", "note": "[Example 9, (3,5-dibromo-4-hydroxyphenyl)(2-ethyl-5-fluoro-2H-indazol-3-yl) methanone]", "IC50, OAT3/IC50, hURAT1": 2.0}
{"molecule": "CCc1nc2ncc(F)cn2c1C(=O)c1cc(Br)c(O)c(C#N)c1", "note": "[Example 14, 3-bromo-5-(2-ethyl-6-fluoroimidazo[1,2-a]pyrimidine-3-carbonyl)-2-hydroxybenzonitrile]", "IC50, OAT3/IC50, hURAT1": 3.6}
{"molecule": "CCn1nc2ccncc2c1C(=O)c1cc(Br)c(O)c(Br)c1", "note": "[Example 16, (3,5-dibromo-4-hydroxyphenyl)(2-ethyl-2H-pyrazolo[4,3-c]pyridin-3-yl)methanone]", "IC50, OAT3/IC50, hURAT1": 3.1}
{"molecule": "CCc1nc2ncc(F)cn2c1C(=O)c1cc(Br)c(O)c(C(F)(F)F)c1", "note": "[Example 18, (3-bromo-4-hydroxy-5-(trifluoromethyl)phenyl)(2-ethyl-6-fluoroimidazo[1,2-a]pyrimidin-3-yl)methanone]", "IC50, OAT3/IC50, hURAT1": 16.2}
{"molecule": "CCc1nc2ncccn2c1C(=O)c1cc(Br)c(O)c(Br)c1", "note": "[Example 20, 2,6-dibromo-4-([2-ethylimidazo[1,2-a]pyrimidin-3-yl]carbonyl) phenol]", "IC50, OAT3/IC50, hURAT1": 8.7}
{"molecule": "CCc1nc2cc(Cl)ncn2c1C(=O)c1cc(Br)c(O)c(Br)c1", "note": "[Example 21, (7-chloro-2-ethylimidazo[1,2-f]pyrimidin-3-yl)(3,5-dibromo-4-hydroxyphenyl)methanone]", "IC50, OAT3/IC50, hURAT1": 5.5}
{"molecule": "CCc1nc2ncccn2c1C(=O)c1cc(Br)c(O)c(C#N)c1", "note": "[Example 22, 3-bromo-5-(2-ethylimidazo[1,2-a]pyrimidine-3-carbonyl)-2-hydroxybenzonitrile]", "IC50, OAT3/IC50, hURAT1": 1.4}
{"molecule": "CCc1nc2ncccn2c1C(=O)c1cc(Br)c(O)c(C(F)(F)F)c1", "note": "[Example 23, (3-bromo-4-hydroxy-5-(trifluoromethyl)phenyl)(2-ethylimidazo[1,2-a]pyrimidin-3-yl)methanone]", "IC50, OAT3/IC50, hURAT1": 10.3}
